Experimental data published in patent US20210388012A1, “METHODS AND COMPOSITIONS FOR PRODRUG FORMS OF SPECTINOMYCIN AND SPECTINAMIDE ANALOGS” (priority 2018, published 2021).

Experiments:
[1] = test system: M. tuberculosis Erdman (TMCC107); assay: Murine model of acute TB infection; format: in vivo; conditions: BALB/c mice, subcutaneous injection 400 mg/kg daily, 12 consecutive days
[2] = Single ascending maximum tolerated dose study in rat; format: in vivo; conditions: female Sprague-Dawley rats, 5 second IV bolus
Protocol: Several compounds were assessed in single ascending maximum tolerated studies. The compounds assessed were 1810; 3408, a prodrug form of compound 1810; 1599, a chloro homologue of compound 1810; and gentamicin, an antimicrobial associated with ototoxicity. The study was carried out in female Sprague-Dawley rats (n=3 per group). All the drug solutions were prepared in water and PLASMA-LYTE A (50:50; […] was obtained from Baxter Healthcare Corporation, Deerfield, Ill.). Each group of rats were fasted overnight with access to water aJ libitum and a fixed volume (2 mL) of drug-containing solution was administered via the jugular vein catheter. Food was withheld for 3 h post dosing. Different phases of the study were classified on five different speeds of i.v, administration; Phase 1: 5 sec, Phase 2: 30 sec, Phase 3: 5 min, Phase 4: 15 min, Phase 5: 30 min. In the first and second phases, a set of predefined dose levels: 10, 25, 50, 75, 100, 150, 300, 350, 400, 450 and 500 mg/kg. Escalation to the next higher dose was conditional upon absence of signs of acute toxicity following the immediate lower dose over a 24 h period. All animals were monitored by visual inspection focused on focus on changes in skin, fur, eyes, and also respiratory, circulatory, autonomic and central nervous systems, along with somatomotor activity and behavior pattern, including tremors, convulsions, salivation, diarrhea, lethargy, sleep and coma. A dose level was deemed an MTD if […] of acute toxicity were observed and that dose was chosen for the second phase of the study where the process was repeated to determine a toxic dose. For third, fourth and fifth phases, dosing solution was infused by a Instech tethering system (Instech Laboratories Inc., Plymouth Meeting, Pa.) where the animal is freely moving within its cage, the catheter connection is held in place by a vascular access harness and a swivel system, and the drug administration is performed via a Harvard Apparatus programmable syringe pump. After dosing, the tether was removed immediately after completion of the infusion and the catheter was flushed with (100 μL) PlasmaLyte A. Surviving animals from the previous dose with no signs of toxicity were re-used in either phases of these studies upon allowing a one day drug washout period.

[3] = Pharmacokinetic study in rat; format: in vivo, Sprague-Dawley rats; conditions: intravenous
Protocol: (§1) LC-MS Method 1. Quantitative determination of the amount of a disclosed compound present in blood, plasma, or urinary can be determined by LC-MS/MS methods. Briefly, a suitable method involves use of calibrants (0.976, 1.95, 3.91, 7.81, 15.63, 31.25, 62.5, 125, 250, 500, 1000 ng/mL) were in sample matrix (e.g., rat plasma, blood or urine). A separate solution of disclosed compound (independent of calibrants) is used to prepare quality controls. Appropriate volumes of working solutions are added to the sample matrix to yield the final concentrations of 1, 50, 1000 ng/mL. Linearity for calibrants in duplicate is assessed by subjecting the spiked concentrations and the respective peak areas to least-square linear regression analysis with and without intercepts, and a weighted least-square regression (1/x or 1/x^2). The lowest limit of quantitation (LLOQ) in the standard curve measured with acceptable accuracy and precision for a disclosed compound from rat plasma has been previously established as 0.976 ng/mL for a representative compound, 1810. All samples are precipitated by the addition of 4-volumes (100 μL) of IS, 1369 (10 ng/mL) in methanol to a volume (25 μL) of plasma/urine test sample. The samples are vortexed (Fisher scientific, USA) for 30 sec and centrifuged at 10,000×g for 10 min at 4° C. and the supernatants are collected for LC-MS/MS analysis. Chromatographic separation is carried out using a Shimadzu Nexera XR (LC-20ADXR) liquid chromatograph (Shimadzu Corporation, USA) consisting of two pumps, online degasser, system controller and an auto sampler. Mobile phase consisting of a) water with 1.6% nonafluoropentanoic acid and 0.7% formic acid b) 90% acetonitrile with 0.8% nonafluoropentanoic acid and 0.35% formic acid can be used at a flow rate of 0.5 rnLirnin in gradient mode. A Waters® Symmetry ® 3.5μ C8, 50×2.1 mm column (Waters, Milford, Mass.) is used for the separation. Samples (5 μL) are injected on column and the eluate is provided directly to an API 5500 triple quadruple mass spectrometer (Applied Biosystems, Foster City, Calif.) equipped with a turbospray ion source operated in the positive ion mode. The optimized multiple reactions monitoring (MRM) conditions for 3408 (549.2A207.1), 1810 (469.2^207.1) and IS (418.3^207.1) are monitored with a declustering potential of 45 V and collision energy of 25 eV. Data are acquired and processed with Analyst software version 1.6.2 (Applied Biosystems, Foster City, Calif.).
Pharmacokinetic assessment of the disclosed compounds can be determined in a rat model as described herein. Briefly, catheterized male Sprague-Dawley rats from Harlan Bioscience (Indianapolis, Ind.), weighing 200-250 g, are kept at a 12 h light/dark cycle with access to food and water ad libitum. The procedures are approved by the Institutional Animal Care and Use Committee of the University of Tennessee Health Science Center. Formulations of a disclosed compound are prepared in water (50%) and PlasniaLyte A (50%). Test compound can be administered either via intravenous route (10 mg/kg) via femoral vein catheter with the study conducted using a group of 6 rats. Blood (250 μL) was collected via the jugular vein catheter at 0.08, 0.25, 0.5, 0.75, 1, 1.5, 2, 4, 6, 8, 10, 24 and 48 h after drug administration. Plasma was immediately separated by centrifugation (6,000×g for 10 min at 4° C.) and stored at −70° C. until analysis. The plasma concentration was determined as described herein above in LC-MS Method 1, and plasma concentration-time courses were fitted to a non-compartmental model using Phoenix WinNonlin 7.0 (Certara L. P., Princeton, NJ). Area under the concentration-time profile curve (AUC) was calculated by the log trapezoidal rule by log-linear regression and extrapolated to infinity by addition of the value Ct/λZ, where Ct is the concentration at the last time point, and λZ the terminal slope (determined by linear regression) of the log concentration-time curve. […]

[4] = PlasmaLyte A stability study; format: physicochemical; conditions: room temperature; for % remaining: 10 mg/mL in PlasmaLyte A and milli-Q water (50:50)
Protocol: as §1
Stability of compound 3408 was determined in a mixture of PlasmaLyte A and milli-Q water (50:50) at room temperature. Briefly, a 10 mg/mL solution of compound 3408 was prepared in triplicate and samples were collected (0, 1, 2, 3, 4, 5, 6 h). These samples were processed by addition of 4-volumes of methanol and quantitated by LC-MS/MS method disclosed herein in LC-MS Method 1. The percentage drug remaining at each hour was calculated with respect to the concetration at the initial time point.

**Q.** With CN[C@@H]1[C@H](O)[C@H](NC)[C@H]2O[C@]3(O)[C@H](O[C@@H]2[C@H]1O)O[C@H](C)C[C@H]3NC(=O)Cc1ccc(OP(=O)(O)O)cn1 [Compound 3408, 6-(2-oxo-2-(((2R,4R,4a5,5aR,6S,7S,8R,9S,9aR,10aS)-4a,7,9-trihydroxy-2-methyl-6,8-bis(methylamino)decahydro-2H-benzo[b]pyrano[2,3-e][1,4]dioxin-4-yl)amino)ethyl)pyridin-3-yl dihydrogen phosphate] as the compound, how does the “Efficacy in mouse model of acute tuberculosis infection (lung CFU, FIG. 1)” value [1] read?
**A.** similarly active

**Q.** And the MTD [2]?
**A.** >500 mg/kg

**Q.** And the MTD at 24 h ([2]; female, Sprague-Dawley, rat, in vivo, iv, read-out: MTD)?
**A.** > 500 mg/kg

**Q.** What about the “In vivo conversion of prodrug to parent (in words)” value [3] of the same compound?
**A.** rapidly converted in vivo to the parent drug form

**Q.** What about the “% remaining” value ([4]; hour 0) of the same compound?
**A.** 100%

**Q.** And the “% remaining” value ([4]; hour 1)?
**A.** 103%

**Q.** What about the “% remaining” value ([4]; hour 2) of the same compound?
**A.** 101%

**Q.** What about the “% remaining” value ([4]; hour 3) of the same compound?
**A.** 105%

**Q.** And the “% remaining” value ([4]; hour 4)?
**A.** 104%

**Q.** What about the “% remaining” value ([4]; hour 5) of the same compound?
**A.** 104%

**Q.** What about the “% remaining” value ([4]; hour 6) of the same compound?
**A.** 104%

**Q.** What about the “time stable in solution” value ([4]; 10 mg/mL in Plasmalyte A and milli-Q water mixture (50:50)) of the same compound?
**A.** at least 6 hours
